Values of other authors as cited in patent US20120238596A1, “FORMULATIONS COMPRISING PALONOSETRON” (DR. REDDY'S LABORATORIES, INC., priority 2008, published 2012).

Target: T1, serotonin subtype 3 (5-HT3) receptor (Homo sapiens, UniProt P46098)
T1 sequence (P46098 24-478): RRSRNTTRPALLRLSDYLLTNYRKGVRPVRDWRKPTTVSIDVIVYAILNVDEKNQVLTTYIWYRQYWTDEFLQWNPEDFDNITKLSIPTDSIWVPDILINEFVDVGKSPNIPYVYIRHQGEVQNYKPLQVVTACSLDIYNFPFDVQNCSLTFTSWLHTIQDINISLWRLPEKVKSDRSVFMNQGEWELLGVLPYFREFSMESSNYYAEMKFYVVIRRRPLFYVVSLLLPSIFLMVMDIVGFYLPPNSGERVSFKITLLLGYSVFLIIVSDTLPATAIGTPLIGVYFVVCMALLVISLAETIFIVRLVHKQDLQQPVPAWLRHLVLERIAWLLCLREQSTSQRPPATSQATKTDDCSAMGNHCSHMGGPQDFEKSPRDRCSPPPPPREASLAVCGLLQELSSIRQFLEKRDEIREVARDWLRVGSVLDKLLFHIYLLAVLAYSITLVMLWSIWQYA

binding affinity for 5-HT3 receptor: strong binding affinity
Structure (SMILES): Cl.O=C1c2cccc3c2[C@H](CCC3)CN1[C@@H]1CN2CCC1CC2 [Palonosetron hydrochloride, (3a5)-2-[(S)-1-Azabicyclo [2.2.2]oct-3-yl]-2,3,3a,4,5,6-hexahydro-1-oxo-1H-benz [de]isoquinoline hydrochloride]
